Source: patent US5374625A, “Adenine and guanine derivatives for the treatment of hepatitis virus infections” (priority 1990, dated 1994)
Converted amounts (≈) assume the structure as drawn.

Tests used:
hepatitis B virus (HBV) = test: Antiviral activity against hepatitis B virus (HBV), viral DNA synthesis inhibition in HB611 cells; type: cell-based; conditions: 360 h, drug concentration required for 50% inhibition of viral DNA synthesis, densitometry, read-out: Anti-HBV activity ID50
Procedure: Antiviral activity against hepatitis B virus (HBV) which is a DNA virus was tested by the following method.
The test was done by using a cell line, HB611, that was established by transfection and continuously produces HBV-like particles [Proc. Natl. Acad. Sci. USA, 84, 444-449, 1987]. HB611 cells were maintained in Dulbecco's modified Eagle medium (Gibco) supplemented with fetal bovine serum (Gibco), 100 μg/ml of streptomycin, […] of benzyl penicillin (Gibco) and 200 μg/ml of geneticin (Gibco) at 37° C. in 5% CO2 -95% air.
The cells were seeded in 24-well plate (Corning) at a density of 3×10^4 cells/well, using 1.0 ml of the medium. After 2 days of incubation, the medium was replaced with the same medium containing the test compound. The cells were incubated for a further 15 days, during which time the medium containing the drug was exchanged every three days. […]
The results which was autoradiographed were analyzed using a densitometric analyzer (Shimadzu, Chromatoscana S930).
To quantitatively evaluate the inhibitory activity of the compounds, there were measured the band areas S, D, D2 (S, D1 and D2 represent intracellular free HBV DNA derived from replicative intermediates) and I (represents chromosomally integrated HBV DNA) by densitometric analyzer, and calculated the inhibition percentage as follows: [formula] […]

[1] = tested on: Human Immonodeficiency Virus (HIV); test: Antiviral activity against HIV (HTLV-IIIB strain) in MT-4 cells, HIV antigen-positive cells by indirect immunofluorescence; type: cell-based, HTLV-IIIB strain of HIV; conditions: Human immunodeficiency virus 1, MT4, 96 h, 4 days
Procedure: Antiviral activity against Human Immonodeficiency Virus (HIV) belonging to RNA virus was examined by the following method: MT-4 cells […] in 0.5 ml of RPMI 1640 culture medium were seeded into 48-well plates, and 50 μl of test compounds were added to various concentrations. The cells were incubated at 37° C. for 2 hours in 5% (v/v) carbondioxide incubator. Then, 50 μl of the HTLV-IIIB strain of HIV (2.5×10^5 to 5×10^5 PFU/ml) was inoculated onto the cells. After 4 days, a part of the cells were applied onto a slide glass and immobilized with acetone. The percentages of HIV antigen-positive MT-4 cells were determined by indirect immunofluorescence assay. As the primary antibody, serum of AIDS patients was used. As the secondary antibody, FITC-labelled anti-human IgG was used.

[2] = tested on: Herpes simplex virus (HSV-1); test: Antiviral activity against Herpes simplex virus (HSV-1), CPE inhibition in Vero cells (Neutral Red); type: cell-based; conditions: Human alphaherpesvirus 1, 50% inhibition of CPE, about 72 hours
Procedure: Antiviral activity against Herpes simplex virus (HSV-1) which is a DNA virus was tested by the following method.
Vero cells (originated from kidney cells of African Green Monkey) were cultured in MEM medium supplemented with 10% fetal bovine serum. One hundred μl of cell suspension (200,000 cells/ml) was plated into 96 wells plates (COSTAR) and cultured for 24 hours so that the culture became confluent. The medium was drawn, and cells were infected with HSV-1 virus for one hour. After drawing the virus fluid, cells were cultured for about 72 hours in a fresh medium containing test samples. The survived cells were stained with Neutral Red solution and absorbance at a wavelength of 546 nm (A546) was measured to evaluate the cytopathic effect (CPE).
CPE inhibition (%) was calculated as follows: [formula] Sample concentration required for 50% inhibition of the CPE was calculated as IC50 (μg/ml).

| Compound | IC50 [1] [µg/mL] | IC50 [2] [µg/mL] | also measured |
| --- | --- | --- | --- |
| Nc1ncnc2c1ncn2[C@@H]1CC[C@H](CO)[C@H]1CO [Example 5, 9-[(1R,2R,3S)-2,3-Bis(hydroxymethyl)-1-cyclopentyl]-adenine] | – | – | IC50 (hepatitis B virus (HBV)): 0.24 µg/mL (≈ 0.912 µM) |
| Nc1ncnc2c1ncn2[C@@H]1C[C@H](CO)[C@@H](CO)C[C@H]1O [Example 13, 9-[(1R,2R,4S,5S)-4,5-Bis(hydroxymethyl)-2-hydroxycyclohexyl]-adenine] | 55 (≈ 188 µM) | – | – |
| Nc1ncnc2c1ncn2[C@H]1CC[C@H](CO)[C@@H](CO)C1 [Example 16, 9-[(1S,3S,4S)-3,4-Bis(hydroxymethyl)-cyclohexyl]-adenine] | 4.5 (≈ 16.2 µM) | – | – |
| Nc1nc2c(ncn2[C@@H]2C[C@H](CO)[C@@H](CO)C[C@H]2O)c(=O)[nH]1 [Example 18, 9-[(1R,2R,4S,5S)-4,5-Bis(hydroxymethyl)-2-hydroxycyclohexyl]-guanine] | – | 45.9 (≈ 148 µM) | – |
| Nc1nc2c(ncn2[C@H]2CC[C@H](CO)[C@@H](CO)C2)c(=O)[nH]1 [Example 21, 9-[(1S,3S,4S)-3,4-Bis(hydroxymethyl)-cyclohexyl]-guanine] | – | 2.77 (≈ 9.44 µM) | – |
